# According to patent US8871753B2, “Macrocyclic compounds and their use as kinase inhibitors” (Incyte Corporation, priority 2008, dated 2014):
# Structures can show the parent of a compound that is named as a salt. Where two headings read alike, the source gives them in different places.
# Columns and labels:
# Type in all cases: biochemical
# [1] = biological target: T1, human JAK1 (a.a. 837-1142) (Homo sapiens, UniProt P23458); test: In vitro JAK kinase assay (HTRF, phosphorylation of a biotinylated peptide), JAK1; conditions: read-out: JAK1 IC50
# T1 construct: human JAK1 (a.a. 837-1142); His tag (N); made in house; host or cells: insect cells (baculovirus)
# T1 sequence (P23458 849-1154): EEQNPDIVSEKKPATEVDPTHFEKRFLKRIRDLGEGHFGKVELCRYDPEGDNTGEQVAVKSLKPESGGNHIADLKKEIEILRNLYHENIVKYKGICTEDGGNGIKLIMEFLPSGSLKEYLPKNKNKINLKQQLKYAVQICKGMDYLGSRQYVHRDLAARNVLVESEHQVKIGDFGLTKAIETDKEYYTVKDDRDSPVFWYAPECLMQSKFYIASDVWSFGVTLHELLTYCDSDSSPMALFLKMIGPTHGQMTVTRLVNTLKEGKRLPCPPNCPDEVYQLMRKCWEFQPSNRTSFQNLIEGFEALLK
# Summary of the method: (§1)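 Kinase activity was measured as phosphorylation of a biotinylated peptide, with ATP at 90 μM for JAK1, 30 μM for JAK2 and 3 μM for JAK3. Reactions ran 1 hr at room temperature, were stopped with EDTA plus SA-APC and Eu-Py20, and were read by HTRF after 40 minutes of antibody binding.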
# [2] = biological target: T2, human JAK2 (a.a. 828-1132) (Homo sapiens, UniProt O60674); test: In vitro JAK kinase assay (HTRF, phosphorylation of a biotinylated peptide), JAK2
# T2 construct: JAK2 (a.a. 828-1132); His tag (N); made in house; host or cells: insect cells (baculovirus)
# T2 sequence (O60674 828-1132): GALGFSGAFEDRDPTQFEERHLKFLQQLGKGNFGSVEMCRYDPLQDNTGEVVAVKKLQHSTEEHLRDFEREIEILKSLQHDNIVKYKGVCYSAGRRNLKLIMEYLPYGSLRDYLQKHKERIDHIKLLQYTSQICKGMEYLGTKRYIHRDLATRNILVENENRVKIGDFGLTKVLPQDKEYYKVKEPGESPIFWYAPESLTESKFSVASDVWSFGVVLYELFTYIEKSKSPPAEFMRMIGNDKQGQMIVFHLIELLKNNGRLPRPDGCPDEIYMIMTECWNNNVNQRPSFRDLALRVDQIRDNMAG
# Summary of the method: as §1
# [3] = biological target: T3, human JAK3 (a.a. 781-1124) (Homo sapiens, UniProt P52333); test: In vitro JAK kinase assay (HTRF, phosphorylation of a biotinylated peptide), JAK3
# T3 construct: JAK3 (a.a. 781-1124); His tag (N); made in house; host or cells: insect cells (baculovirus)
# T3 sequence (P52333 781-1124): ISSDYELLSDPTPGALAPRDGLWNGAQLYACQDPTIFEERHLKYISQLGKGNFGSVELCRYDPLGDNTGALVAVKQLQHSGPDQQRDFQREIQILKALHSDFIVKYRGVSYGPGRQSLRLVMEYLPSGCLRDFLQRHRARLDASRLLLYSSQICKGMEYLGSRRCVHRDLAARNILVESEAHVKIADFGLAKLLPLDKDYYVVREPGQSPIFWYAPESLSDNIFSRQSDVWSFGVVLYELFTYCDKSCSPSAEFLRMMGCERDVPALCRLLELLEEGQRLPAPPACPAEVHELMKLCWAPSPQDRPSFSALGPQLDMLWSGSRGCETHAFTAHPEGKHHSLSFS
# Summary of the method: as §1
# [4] = biological target: TYK2 (Homo sapiens, UniProt P29597); test: TYK2 kinase inhibition (Table A1)
# TYK2, sequence (P29597 whole entry): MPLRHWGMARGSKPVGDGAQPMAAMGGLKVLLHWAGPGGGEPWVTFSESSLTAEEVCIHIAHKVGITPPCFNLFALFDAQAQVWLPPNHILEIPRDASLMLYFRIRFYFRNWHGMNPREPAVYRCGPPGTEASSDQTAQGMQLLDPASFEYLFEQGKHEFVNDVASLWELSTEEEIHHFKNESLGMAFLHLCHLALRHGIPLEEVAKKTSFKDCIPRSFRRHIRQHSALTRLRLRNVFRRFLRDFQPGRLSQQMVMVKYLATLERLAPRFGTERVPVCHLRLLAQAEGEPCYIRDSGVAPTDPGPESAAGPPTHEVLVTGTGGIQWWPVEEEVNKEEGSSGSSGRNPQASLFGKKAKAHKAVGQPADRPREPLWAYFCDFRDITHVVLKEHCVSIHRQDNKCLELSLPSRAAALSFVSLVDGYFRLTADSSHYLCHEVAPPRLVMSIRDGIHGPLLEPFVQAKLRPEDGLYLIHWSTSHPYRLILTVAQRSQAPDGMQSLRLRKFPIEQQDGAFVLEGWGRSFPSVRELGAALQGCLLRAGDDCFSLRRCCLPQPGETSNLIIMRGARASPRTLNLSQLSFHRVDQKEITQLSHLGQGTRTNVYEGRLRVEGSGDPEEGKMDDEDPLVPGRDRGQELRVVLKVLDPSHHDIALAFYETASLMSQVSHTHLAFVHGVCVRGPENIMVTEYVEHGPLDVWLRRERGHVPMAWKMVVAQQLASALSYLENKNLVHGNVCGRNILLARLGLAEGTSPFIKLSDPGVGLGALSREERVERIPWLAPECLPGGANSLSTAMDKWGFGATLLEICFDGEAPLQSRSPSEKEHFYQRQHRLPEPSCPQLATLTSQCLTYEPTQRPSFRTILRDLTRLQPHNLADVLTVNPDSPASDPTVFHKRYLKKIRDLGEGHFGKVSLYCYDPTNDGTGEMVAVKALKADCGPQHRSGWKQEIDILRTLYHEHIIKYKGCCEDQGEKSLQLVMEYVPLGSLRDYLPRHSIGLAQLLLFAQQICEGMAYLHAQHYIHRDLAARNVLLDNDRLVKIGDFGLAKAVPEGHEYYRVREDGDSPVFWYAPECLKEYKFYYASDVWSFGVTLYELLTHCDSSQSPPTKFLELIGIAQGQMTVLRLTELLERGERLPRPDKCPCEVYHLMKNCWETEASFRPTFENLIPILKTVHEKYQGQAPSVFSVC
Compound,IC50 ([1]; Table D1) [nM],IC50 ([2]; Table D1) [nM],IC50 ([3]; Table D1) [nM],IC50 ([4]; Table D1) [nM],IC50 [1] [nM],IC50 [2] [nM],IC50 [3] [nM],IC50 [4] [nM],"IC50 ([1]; method AA1 (90 μM ATP) or AA2 (1000 μM ATP), not stated per value) [nM]","IC50 ([2]; method AA1 (30 μM ATP) or AA2 (1000 μM ATP), not stated per value) [nM]","IC50 ([3]; method AA1 (3 μM ATP) or AA2 (1000 μM ATP), not stated per value) [nM]"
"O=C(Cn1c(=O)oc2c3cc(cc21)Nc1nc(ncc1Cl)Nc1cccc(c1)CC3)N1CCOCC1 [Example D187, 4-Chloro-20-(2-morpholin-4-yl-2-oxoethyl)-18-oxa-2,6,8,20,25-pentaazapentacyclo[14.6.1.1(3,7).1(9,13).0(17,21)]pentacosa-1(23),3(25),4,6,9(24),10,12,16,21-nonaen-19-one trifluoroacetate]",200,185,130,> 1000,,,,,,,
"O=C(COc1ccc2cc1CCc1cncc(c1)Nc1ncc(Cl)c(n1)N2)N1CCN(C(=O)c2ccc(F)cc2F)CC1 [Example D259, 6-Chloro-12-{2-[4-(2,4-difluorobenzoyl)piperazin-1-yl]-2-oxoethoxy}-2,4,8,18,22-pentaazatetracyclo[14.3.1.1(3,7).1(9,13)]docosa-1(20),3(22),4,6,9(21),10,12,16,18-nonaene bis(trifluoroacetate)]",42,37,> 400,> 400,,,,,,,
"O=C(c1cccs1)N1Cc2cccc(c2)Nc2ncc(Cl)c(n2)Nc2cccc1c2 [Example C25, 6-Chloro-14-(2-thienylcarbonyl)-2,4,8,14,22-pentaazatetracyclo[14.3.1.1(3,7).1(9,13)]docosa-1(20),3(22),4,6,9(21),10,12,16,18-nonaene]",,,,,91,173,> 10000,793,,,
"O=C(Nc1ccsc1)N1CCC(CCOc2ccc3cc2CCc2cncc(c2)Nc2ncc(Cl)c(n2)N3)CC1 [Example D166, 4-(2-{[6-Chloro-2,4,8,18,22-pentaazatetracyclo[14.3.1.1(3,7).1(9,13)]docosa-1(20),3(22),4,6,9(21),10,12,16,18-nonaen-12-yl]oxy}ethyl)-N-3-thienylpiperidine-1-carboxamide bis(trifluoroacetate)]",14,58,> 400,> 400,,,,,,,
"O=C(Nc1ccccc1F)N1CCC(CCOc2ccc3cc2CCc2cncc(c2)Nc2ncc(Cl)c(n2)N3)CC1 [Example D170, 4-(2-{[6-Chloro-2,4,8,18,22-pentaazatetracyclo[14.3.1.1(3,7).1(9,13)]docosa-1(20),3(22),4,6,9(21),10,12,16,18-nonaen-12-yl]oxy}ethyl)-N-(2-fluorophenyl)piperidine-1-carboxamide bis(trifluoroacetate)]",23,130,> 400,> 400,,,,,,,
"N#Cc1ccccc1S(=O)(=O)N1CCC(CCNc2ccc3cc2CCc2cncc(c2)Nc2ncc(Cl)c(n2)N3)CC1 [Example D222, 2-{[4-(2-{[6-Chloro-2,4,8,18,22-pentaazatetracyclo[14.3.1.1(3,7).1(9,13)]docosa-1(20),3(22),4,6,9(21),10,12,16,18-nonaen-12-yl]amino}ethyl)piperidin-1-yl]sulfonyl}benzonitrile tris(trifluoroacetate)]",21,111,> 400,90,,,,,,,
"Cc1oncc1C(=O)N1CCC(CCOc2ccc3cc2CCc2cncc(c2)Nc2ncc(Cl)c(n2)N3)CC1 [Example D178, 6-Chloro-12-(2-{1-[(5-methylisoxazol-4-yl)carbonyl]piperidin-4-yl}ethoxy)-2,4,8,18,22-pentaazatetracyclo[14.3.1.1(3,7).1(9,13)]docosa-1(20),3(22),4,6,9(21),10,12,16,18-nonaene bis(trifluoroacetate)]",265,> 400,> 400,> 400,,,,,,,
"O=C(Nc1cccc(F)c1)N1CCC(CCOc2ccc3cc2CCc2cncc(c2)Nc2ncc(Cl)c(n2)N3)CC1 [Example D169, 4-(2-{[6-Chloro-2,4,8,18,22-pentaazatetracyclo[14.3.1.1(3,7).1(9,13)]docosa-1(20),3(22),4,6,9(21),10,12,16,18-nonaen-12-yl]oxy}ethyl)-N-(3-fluorophenyl)piperidine-1-carboxamide bis(trifluoroacetate)]",39,235,> 400,> 400,,,,,,,
"O=C(COc1ccc2cc1CCc1cncc(c1)Nc1ncc(Cl)c(n1)N2)N1CCN(c2ncccn2)CC1 [Example D233, 6-Chloro-12-[2-oxo-2-(4-pyrimidin-2-ylpiperazin-1-yl)ethoxy]-2,4,8,18,22-pentaazatetracyclo[14.3.1.1(3,7).1(9,13)]docosa-1(20),3(22),4,6,9(21),10,12,16,18-nonaene tris(trifluoroacetate)]",100,> 400,> 400,> 400,,,,,,,
"O=C(C[C@H]1CCCNC1)Nc1ccc2cc1CCc1cccc(c1)Nc1ncc(Cl)c(n1)N2 [Example D193, N-[6-Chloro-2,4,8,22-tetraazatetracyclo[14.3.1.1(3,7).1(9,13)]docosa-1(20),3(22),4,6,9(21),10,12,16,18-nonaen-12-yl]-2-[(3R)-piperidin-3-yl]acetamidebis(trifluoroacetate)]",1.4,8.3,32,6.1,,,,,,,
"N#Cc1ccc(N2CCN(C(=O)COc3ccc4cc3CCc3cncc(c3)Nc3ncc(Cl)c(n3)N4)CC2)nc1 [Example D239, 6-[4-({[6-Chloro-2,4,8,18,22-pentaazatetracyclo[14.3.1.1(3,7).1(9,13)]docosa-1(20),3(22),4,6,9(21),10,12,16,18-nonaen-12-yl]oxy}acetyl)piperazin-1-yl]nicotinonitrile tris(trifluoroacetate)]",101,208,> 400,> 400,,,,,,,
"Cc1cc(C(=O)N2CCC(COc3ccc4cc3CCc3cncc(c3)Nc3ncc(Cl)c(n3)N4)C2)no1 (stereo not drawn) [Example C58, 6-Chloro-12-({1-[(5-methylisoxazol-3-yl)carbonyl]pyrrolidin-3-yl}methoxy)-2,4,8,18,22-pentaazatetracyclo[14.3.1.1(3,7).1(9,13)]docosa-1(20),3(22),4,6,9(21),10,12,16,18-nonaene bis(trifluoroacetate)]",,,,,217,> 400,> 400,> 400,,,
"O=C(c1cccnc1Cl)N1CCC(CCOc2ccc3cc2CCc2cncc(c2)Nc2ncc(Cl)c(n2)N3)CC1 [Example D179, 6-Chloro-12-(2-{1-[(2-chloropyridin-3-yl)carbonyl]piperidin-4-yl}ethoxy)-2,4,8,18,22-pentaazatetracyclo[14.3.1.1(3,7).1(9,13)]docosa-1(20),3(22),4,6,9(21),10,12,16,18-nonaene tris(trifluoroacetate)]",226,> 400,> 400,> 400,,,,,,,
"CCCC(=O)N1Cc2cccc(c2)Nc2ncc(Cl)c(n2)Nc2cccc1c2 [Example C26, 14-Butyryl-6-chloro-2,4,8,14,22-pentaazatetracyclo[14.3.1.1(3,7).1(9,13)]docosa-1(20),3(22),4,6,9(21),10,12,16,18-nonaene]",,,,,228,357,> 10000,1420,,,
"O=C(COc1ccc2cc1CCc1cncc(c1)Nc1ncc(Cl)c(n1)N2)N1CCNCC1 [Example D229, 6-Chloro-12-(2-oxo-2-piperazin-1-ylethoxy)-2,4,8,18,22-pentaazatetracyclo[14.3.1.1(3,7).1(9,13)]docosa-1(20),3(22),4,6,9(21),10,12,16,18-nonaene tris(trifluoroacetate)]",153,235,> 400,> 400,,,,,,,
"O=C(Cc1cccnc1)Nc1ccc2cc1CCc1cccc(c1)Nc1ncc(Cl)c(n1)N2 [Example C39, N-[6-Chloro-2,4,8,22-tetraazatetracyclo[14.3.1.1(3,7).1(9,13)]docosa-1(20),3(22),4,6,9(21),10,12,16,18-nonaen-12-yl]-2-pyridin-3-ylacetamide bis(trifluoroacetate)]",,,,,54,29,1220,195,,,
"O=C(c1cnccn1)N1CCC(CCOc2ccc3cc2CCc2cncc(c2)Nc2ncc(Cl)c(n2)N3)CC1 [Example D177, 6-Chloro-12-{2-[1-(pyrazin-2-ylcarbonyl)piperidin-4-yl]ethoxy}-2,4,8,18,22-pentaazatetracyclo[14.3.1.1(3,7).1(9,13)]docosa-1(20),3(22),4,6,9(21),10,12,16,18-nonaene tris(trifluoroacetate)]",150,265,> 400,> 400,,,,,,,
"N#Cc1ccc(NC(=O)N2CCC(C(=O)Nc3ccc4cc3CCc3cccc(c3)Nc3ncc(Cl)c(n3)N4)CC2)cc1 [Example A37, N(4)-[6-Chloro-2,4,8,22-tetraazatetracyclo[14.3.1.1(3,7).1(9,13)]docosa-1(20),3(22),4,6,9(21),10,12,16,18-nonaen-12-yl]-N(1)-(4-cyanophenyl)piperidine-1,4-dicarboxamide trifluoroacetate]",,,,,,,,21,9,11,24
